The test system of the test is P388 leukemia ip, CD2F1 mice, survival T/C. The test can be described thus: NCI In Vivo Anticancer Drug Screen. Data for tumor model P388 Leukemia (intraperitoneal) in CD2F1 (CDF1) mice. The conditions noted are these: endpoint: median survival time, higher = longer survival. The procedure, abridged: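 Mice carrying the transplanted tumor received test compound or vehicle. Survival was recorded in each group, and the value is the treated-group measurement divided by that of the vehicle-treated control group.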

Where [1] appears, read: dose: 50.0 mg/kg/injection, schedule: Q01DX005 (ip), vehicle: saline with Tween-80.
The mark [2] stands for this setting: dose: 100.0 mg/kg/injection, schedule: Q01DX005 (ip), vehicle: saline with Tween-80.
[3] abbreviates: dose: 200.0 mg/kg/injection, schedule: Q01DX005 (ip), vehicle: saline with Tween-80.
The mark [4] stands for this setting: dose: 50.0 mg/kg/injection, schedule: Q01DX009 (ip), vehicle: saline.
Where [5] appears, read: dose: 100.0 mg/kg/injection, schedule: Q01DX009 (ip), vehicle: saline.
[6] abbreviates: dose: 200.0 mg/kg/injection, schedule: Q01DX009 (ip), vehicle: saline.
The mark [7] stands for this setting: dose: 50.0 mg/kg/injection, schedule: Q01DX005 (ip), vehicle: Klucel (hydroxypropylcellulose) (HPC).
[8] abbreviates: dose: 100.0 mg/kg/injection, schedule: Q01DX005 (ip), vehicle: Klucel (hydroxypropylcellulose) (HPC).
The mark [9] stands for this setting: dose: 200.0 mg/kg/injection, schedule: Q01DX005 (ip), vehicle: Klucel (hydroxypropylcellulose) (HPC).
[10] abbreviates: dose: 25.0 mg/kg/injection, schedule: Q01DX009 (ip), vehicle: saline with Tween-80.
Setting [11] is: dose: 50.0 mg/kg/injection, schedule: Q01DX009 (ip), vehicle: saline with Tween-80.
[12] abbreviates: dose: 100.0 mg/kg/injection, schedule: Q01DX009 (ip), vehicle: saline with Tween-80.
[13] abbreviates: dose: 100.0 mg/kg/injection, schedule: Q01DX001 (ip), vehicle: saline with Tween-80.
[14] abbreviates: dose: 200.0 mg/kg/injection, schedule: Q01DX001 (ip), vehicle: saline with Tween-80.
Setting [15] is: dose: 400.0 mg/kg/injection, schedule: Q01DX001 (ip), vehicle: saline with Tween-80.

Here are results for 24 compounds from PubChem BioAssay AID330 (DTP/NCI, 2004).

Values joined by “and” are separate entries in the source; they are usually repeats but may differ in a detail not shown here. Identical values can stand only once. Inconclusive results and toxic doses are left out. Peptide text beside a SMILES is read from it. * marks the point of attachment. Cbz = O=C(OCc1ccccc1)*

With `OCC1OC(O)C(N=Cc2ccc3c(c2)OCO3)C(O)C1O` (configuration not stated), the T/C was 104 % of control under setting [1], 100 % of control under setting [2] and 102 % of control under setting [3].
`O=C(c1ccc(Cl)cc1)n1c(Cl)c(/C=N\Nc2ccc([N+](=O)[O-])cc2[N+](=O)[O-])c2ccccc21`: the T/C by setting is: (dose: 12.5 mg/kg/injection, schedule: Q01DX001 (ip), vehicle: Klucel (hydroxypropylcellulose) (HPC)) 92 % of control; (dose: 25.0 mg/kg/injection, schedule: Q01DX001 (ip), vehicle: Klucel (hydroxypropylcellulose) (HPC)) 96 % of control; (dose: 50.0 mg/kg/injection, schedule: Q01DX001 (ip), vehicle: Klucel (hydroxypropylcellulose) (HPC)) 88 % of control.
As for `CC1(CCl)CC(=O)N1C(N)=O` (configuration not stated), the T/C under setting [4] was 96 % of control, the T/C under setting [5] is 104 % of control and the T/C under setting [6] is 105 % of control.
As for `CN(C)CC[CH2][Sn]([CH3])([c]1ccccc1)[c]1ccccc1`, the T/C (dose: 6.25 mg/kg/injection, schedule: Q01DX009 (ip), vehicle: suspension in saline) is 88 % of control; the T/C (dose: 12.5 mg/kg/injection, schedule: Q01DX009 (ip), vehicle: suspension in saline) is 101 % of control; the T/C (dose: 25.0 mg/kg/injection, schedule: Q01DX009 (ip), vehicle: suspension in saline) is 103 % of control.
Turning to `O=C(NC(CO)C(=O)NC(Cc1ccc(O)cc1)C(=O)O)OCc1ccccc1` (stereo not drawn) (Cbz-Ser-Tyr-OH; configuration not given here), the T/C is 98 % of control under setting [7], 100 % of control under setting [8] and 101 % of control under setting [9].
On to `Cc1ccc(O)c(C2CC(=O)NC(NC#N)=N2)c1` (configuration not stated), for which the T/C by setting is: under setting [4], 103 % of control; under setting [5], 101 % of control; under setting [6], 101 % of control.
Regarding `CCOC(=O)c1cccc([N+](=O)[O-])c1C(=O)OCCN(CC)CC`, the T/C was 100 % of control (dose: 100.0 mg/kg/injection, schedule: Q04DX002 (ip), vehicle: saline with Tween-80) and 122 % of control (dose: 200.0 mg/kg/injection, schedule: Q04DX002 (ip), vehicle: saline with Tween-80).
On to `CC(C)c1ccc(O)c(=O)cc1`, for which the T/C was 99 % of control under setting [10], 102 % of control under setting [11] and 114 % of control under setting [12].
Turning to `CS(=O)(=O)OCCOc1ccc(-c2nc3ccccc3[nH]2)cc1`, the T/C was 90 % of control under setting [13], 98 % of control under setting [14] and 99 % of control under setting [15].
Consider `O=[N+]([O-])c1ccc2[nH]ncc2c1`, for which the T/C reads like this: under setting [11], 100 % of control; under setting [12], 100 % of control; (dose: 200.0 mg/kg/injection, schedule: Q01DX009 (ip), vehicle: saline with Tween-80) 110 % of control.
Turning to `CCOC(=O)C1=C(C)/C(=C/c2[n-]c(Cl)c(C)c2C(=O)OCC)N=C1C.CCOC(=O)C1=C(C)/C(=C/c2[n-]c(Cl)c(C)c2C(=O)OCC)N=C1C.[Ni+2]`, the T/C is 102 % of control under setting [7], 114 % of control under setting [8] and 102 % of control under setting [9].
For the compound `CCN1c2ccccc2CC(CCN(C)Cc2ccccc2)(C(N)=O)c2ccccc21` (configuration not stated), the T/C is 92 % of control (dose: 12.5 mg/kg/injection, schedule: Q01DX009 (ip), vehicle: saline with Tween-80); 99 % of control under setting [10]; 100 % of control under setting [11].
With `CC1=CC(C)=NC(N)=NN1`, the T/C is 99 % of control (dose: 25.0 mg/kg/injection, schedule: Q01DX009 (ip), vehicle: water); 108 % of control (dose: 50.0 mg/kg/injection, schedule: Q01DX009 (ip), vehicle: water); 103 % of control (dose: 100.0 mg/kg/injection, schedule: Q01DX009 (ip), vehicle: water); 119 % of control (dose: 200.0 mg/kg/injection, schedule: Q01DX009 (ip), vehicle: water).
As for `COC(=O)C1=NC1c1ccc(C)cc1` (configuration not stated), the T/C reads like this: under setting [13], 104 % of control; under setting [14], 110 % of control; under setting [15], 100 % of control.
In the case of `COC1/C=C\CC2=CCCC=C2CC1` (configuration not stated), the T/C reads like this: (dose: 25.0 mg/kg/injection, schedule: Q01DX009 (sc), vehicle: olive oil, sesame oil, peanut oil) 100 % of control; (dose: 50.0 mg/kg/injection, schedule: Q01DX009 (sc), vehicle: olive oil, sesame oil, peanut oil) 97 % of control; (dose: 100.0 mg/kg/injection, schedule: Q01DX009 (sc), vehicle: olive oil, sesame oil, peanut oil) 97 % of control; (dose: 200.0 mg/kg/injection, schedule: Q01DX009 (sc), vehicle: olive oil, sesame oil, peanut oil) 95 % of control.
`CC(C)OC(=O)Nc1ccc2nc(-c3cscn3)[nH]c2c1`: the T/C is 110 % of control under setting [1]; 114 % of control and 121 % of control under setting [2]; 151 % of control under setting [3]; 180 % of control (dose: 400.0 mg/kg/injection, schedule: Q01DX005 (ip), vehicle: saline with Tween-80).
On to `CC1C=CC(C)C2C(=O)C3C(C)C=CC(C)C3C(=O)C12` (configuration not stated), for which the T/C is 93 % of control under setting [7], 97 % of control under setting [8] and 87 % of control under setting [9].
Take `CC1(C)CC(=O)c2c(oc3cc4c5c(oc4cc23)CC(C)(C)CC5=O)C1`: the T/C (dose: 12.5 mg/kg/injection, schedule: Q01DX005 (ip), vehicle: saline with Tween-80) was 90 % of control; the T/C (dose: 25.0 mg/kg/injection, schedule: Q01DX005 (ip), vehicle: saline with Tween-80) is 91 % of control; the T/C under setting [2] was 87 % of control; the T/C under setting [3] was 92 % of control.
On to `OC(C(c1ccccc1)c1ccccn1)(C(F)(F)F)C(F)(F)F` (configuration not stated), for which the T/C (dose: 100.0 mg/kg/injection, schedule: Q04DX003 (ip), vehicle: saline with Tween-80) was 100 % of control; the T/C (dose: 200.0 mg/kg/injection, schedule: Q04DX003 (ip), vehicle: saline with Tween-80) was 95 % of control; the T/C (dose: 400.0 mg/kg/injection, schedule: Q04DX003 (ip), vehicle: saline with Tween-80) was 95 % of control.
Consider `CC1C(=O)C(C)C(c2ccc([N+](=O)[O-])cc2)OC1c1ccccc1` (configuration not stated), for which the T/C (dose: 50.0 mg/kg/injection, schedule: Q01DX001 (ip), vehicle: suspension in saline) was 96 % of control; the T/C (dose: 100.0 mg/kg/injection, schedule: Q01DX001 (ip), vehicle: suspension in saline) was 100 % of control; the T/C (dose: 200.0 mg/kg/injection, schedule: Q01DX001 (ip), vehicle: suspension in saline) was 102 % of control.
On to `COc1ccc(CSC(=S)Nc2ccc(Cl)c(C)c2)cc1`, for which the T/C (dose: 50.0 mg/kg/injection, schedule: Q01DX009 (ip), vehicle: suspension in saline) is 111 % of control; the T/C (dose: 100.0 mg/kg/injection, schedule: Q01DX009 (ip), vehicle: suspension in saline) is 109 % of control; the T/C (dose: 200.0 mg/kg/injection, schedule: Q01DX009 (ip), vehicle: suspension in saline) was 106 % of control.
With `Cc1ccc(C(=O)C=C(C(F)(F)F)C(F)(F)F)cc1`, the T/C is 100 % of control (dose: 6.25 mg/kg/injection, schedule: Q01DX009 (ip), vehicle: saline); 95 % of control (dose: 6.25 mg/kg/injection, schedule: Q04DX003 (ip), vehicle: saline); 100 % of control (dose: 12.5 mg/kg/injection, schedule: Q01DX009 (ip), vehicle: saline); 95 % of control (dose: 12.5 mg/kg/injection, schedule: Q04DX003 (ip), vehicle: saline); 109 % of control (dose: 25.0 mg/kg/injection, schedule: Q01DX009 (ip), vehicle: saline); 104 % of control (dose: 25.0 mg/kg/injection, schedule: Q04DX003 (ip), vehicle: saline).
Turning to `O=c1c(N=Nc2ccccc2)c(C(O)C(O)CO)[nH]n1-c1ccc(Cl)cc1` (configuration not stated), the T/C (dose: 63.5 mg/kg/injection, schedule: Q01DX001 (ip), vehicle: Klucel (hydroxypropylcellulose) (HPC)) was 87 % of control; the T/C (dose: 127.0 mg/kg/injection, schedule: Q01DX001 (ip), vehicle: Klucel (hydroxypropylcellulose) (HPC)) is 89 % of control; the T/C (dose: 254.0 mg/kg/injection, schedule: Q01DX001 (ip), vehicle: Klucel (hydroxypropylcellulose) (HPC)) was 100 % of control.
For `Cc1ccc[c]([Hg][Cl])c1N=Nc1ccccc1`, the T/C is 118 % of control (dose: 9.5 mg/kg/injection, schedule: Q01DX009 (ip), vehicle: saline with Tween-80) and 110 % of control (dose: 19.0 mg/kg/injection, schedule: Q01DX009 (ip), vehicle: saline with Tween-80).
